The test system of one assay is zif268 mRNA expression. The experiment in a line: zif268 mRNA assay (Northern blot) in cultured dissociated hippocampal neurons. The assay is classed as cell-based. Conditions: added to induction medium. The method, then:
The peak in zif268 expression after 30 min established the optimal delay for mRNA-based assays. Similar optimisation of protein-based immunohistochemical assays indicates an optimum 2 h post-exposure delay.
Zif268 mRNA assays were carried out as in Example 2, with cells exposed to ACSF control, to induction medium, or to induction medium with the addition of […] (an inhibitor of MAPK kinase) (FIG. 15) or with the addition of a mixture of the calcium channel blocker cadmium and the glutamate receptor antagonists AP5 and CNQX (FIG. 16).

The subject of assay [1] is neuronal zif268 expression. Kind of assay: zif268 immunocytochemical assay (zif268/NeuN double-labelled neurons) in dissociated hippocampal neuron culture. The assay is classed as cell-based, Sprague-Dawley rat. The settings on record: added to induction medium, 0.2 μM each, 10 min exposure; listed as Carbachol. The method, then: Hippocampal neurons were prepared from late embryonic or 1st postnatal day Sprague-Dawley rates, and grown in dissociated cell culture in microtitre plates. After 7-21 days in vitro, serum-containing medium was replaced with serum-free medium for 24 h. This medium was then replaced with ACSF or with induction medium for 10 minutes; these solutions were then replaced with serum-free medium. After 1 hour, cells were fixed by replacement of serum-free medium with phosphate-buffered saline containing 4% paraformaldehyde. Immunolabelling was then carried out with rabbit antiserum against zif268 and mouse antibodies against the neuron-specific antigen NeuN. After washing, bound antibodies were visualised by incubation with Alexa488-labelled anti-rabbit IgG and Cy3-labelled anti-mouse IgG (FIG. 12 top).
An immunocytochemical assay was carried out as in Example 3, with cells exposed to ACSF, to induction medium, to induction medium with the addition of carbachol and isoproterenol (0.2 μM each) or to induction medium with the addition of carbachol only (0.2 μM).

“Also recorded” adds a separate entry of the source.

Consider `COc1cccc(-c2cc(=O)c3ccccc3o2)c1N` [PD98959], for which, in the assay with zif268 mRNA expression, the “effect on chemically-induced zif268 mRNA expression” value is reported as “significantly reduced; also recorded: inhibits”.

`C[N+](C)(C)CCOC(N)=O` [carbachol]: the “effect on chemically induced increase in neuronal zif268 immunoreactivity” value in assay [1] is recorded as “no effect”.

These data come from US20040076989A1, “Synaptic transmission assay” (priority 2000, published 2004).
